In ChEMBL document CHEMBL5346947, “Targeting the Estrogen Receptor for the Treatment of Breast Cancer: Recent Advances and Challenges” (J Med Chem, 2023):
pIC50: −log10 of the molar value.

Tests used:
MCF7 [1] = test: Antitumor activity against human MCF7 cells xenograft model assessed as tumor growth inhibition at 90 mg/kg relative to control; format: functional; conditions: read-out: TGI
MCF7 [2] = test: Antitumor activity against human MCF7 cells xenograft model assessed as tumor growth inhibition at 60 mg/kg relative to control; format: functional; conditions: read-out: TGI
MCF7 [3] = test: Antitumor activity against human MCF7 cells xenograft model assessed as tumor growth inhibition at 30 mg/kg relative to control; format: functional; conditions: read-out: TGI
MCF7 [4] = test: Antitumor activity against human MCF7 cells xenograft model assessed as tumor growth inhibition at 120 mg/kg relative to control; format: functional; conditions: read-out: TGI
[5] = Volume of distribution at steady state in Sprague-Dawley rat at 5 mg/kg, iv measured upto 24 hrs by LC-MS/MS analysis; format: ADME, organism-based; conditions: in vivo, read-out: Vdss
[6] = Volume of distribution at steady state in cynomolgus monkey at 5 mg/kg, iv measured upto 24 hrs by LC-MS/MS analysis; format: ADME, organism-based, Macaca fascicularis; conditions: in vivo, read-out: Vdss
[7] = Clearance in cynomolgus monkey at 5 mg/kg, iv measured upto 24 hrs by LC-MS/MS analysis; format: ADME, organism-based, Macaca fascicularis; conditions: in vivo
[8] = Half life in Sprague-Dawley rat at 5 mg/kg, iv measured upto 24 hrs by LC-MS/MS analysis; format: ADME, organism-based; conditions: in vivo
[9] = AUC in cynomolgus monkey at 10 mg/kg, po measured upto 24 hrs by LC-MS/MS analysis; format: ADME, organism-based, Macaca fascicularis; set-up: dose 10 mg/kg, time < 24 hrs, route po; conditions: in vivo
[10] = Cmax in cynomolgus monkey at 10 mg/kg, po measured upto 24 hrs by LC-MS/MS analysis; format: ADME, organism-based, Macaca fascicularis; set-up: time < 24 hrs, dose 10 mg/kg, route po; conditions: in vivo
[11] = Oral bioavailability in Sprague-Dawley rat at 10 mg/kg measured upto 24 hrs by LC-MS/MS analysis; format: ADME, organism-based; conditions: in vivo
[12] = Cmax in Sprague-Dawley rat at 10 mg/kg, po measured upto 24 hrs by LC-MS/MS analysis; format: ADME, organism-based; set-up: dose 10 mg/kg, time < 24 hrs, route po; conditions: in vivo
MCF7 [13] = test: Growth inhibition of human MCF7 cells; format: functional
[14] = Half life in cynomolgus monkey at 5 mg/kg, iv measured upto 24 hrs by LC-MS/MS analysis; format: ADME, organism-based, Macaca fascicularis; conditions: in vivo
[15] = AUC in Sprague-Dawley rat at 10 mg/kg, po measured upto 24 hrs by LC-MS/MS analysis; format: ADME, organism-based; set-up: time < 24 hrs, dose 10 mg/kg, route po; conditions: in vivo
[16] = Oral bioavailability in cynomolgus monkey at 10 mg/kg measured upto 24 hrs by LC-MS/MS analysis; format: ADME, organism-based, Macaca fascicularis; conditions: in vivo
[17] = target: T1, Progesterone receptor (Homo sapiens) (UniProt P06401); test: Inhibition of PGR transcription in human MCF7 harboring ERalpha […] mutant measured upto 96 hrs by qPCR analysis relative to control; format: cell-based
T1 sequence (whole entry): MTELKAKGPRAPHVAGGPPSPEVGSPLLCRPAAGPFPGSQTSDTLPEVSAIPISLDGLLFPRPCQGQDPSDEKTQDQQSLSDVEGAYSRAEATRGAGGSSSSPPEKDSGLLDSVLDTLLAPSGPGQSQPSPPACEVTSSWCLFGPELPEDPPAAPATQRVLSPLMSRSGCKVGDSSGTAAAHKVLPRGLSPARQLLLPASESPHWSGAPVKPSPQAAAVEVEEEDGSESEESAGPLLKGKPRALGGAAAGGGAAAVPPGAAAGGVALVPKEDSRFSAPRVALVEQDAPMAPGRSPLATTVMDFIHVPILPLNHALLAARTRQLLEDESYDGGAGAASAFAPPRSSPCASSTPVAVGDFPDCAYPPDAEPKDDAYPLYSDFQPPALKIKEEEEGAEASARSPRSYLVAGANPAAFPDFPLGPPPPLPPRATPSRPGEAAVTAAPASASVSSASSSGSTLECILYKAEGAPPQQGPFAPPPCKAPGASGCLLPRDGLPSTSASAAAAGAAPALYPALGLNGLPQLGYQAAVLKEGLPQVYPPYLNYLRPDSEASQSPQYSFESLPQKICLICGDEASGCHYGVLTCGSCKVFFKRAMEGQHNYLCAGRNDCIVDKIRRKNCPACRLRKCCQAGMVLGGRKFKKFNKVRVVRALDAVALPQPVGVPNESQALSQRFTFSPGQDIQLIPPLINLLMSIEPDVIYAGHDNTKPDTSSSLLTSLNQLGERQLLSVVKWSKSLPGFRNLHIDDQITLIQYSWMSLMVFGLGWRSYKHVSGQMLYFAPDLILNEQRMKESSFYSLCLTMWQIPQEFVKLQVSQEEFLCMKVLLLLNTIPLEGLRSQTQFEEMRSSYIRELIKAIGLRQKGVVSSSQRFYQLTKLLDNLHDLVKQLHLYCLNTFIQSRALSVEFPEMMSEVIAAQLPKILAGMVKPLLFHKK

MCF7 [18] = test: Antiproliferative activity against human MCF7 cells harboring wild type ERalpha assessed as inhibition of cell growth incubated for 6 to 7 days by high content imaging assay; format: functional, cell-based
MCF7 [19] = test: Antiproliferative activity against human MCF7 cells harboring ERalpha Y537N mutant assessed as inhibition of cell growth incubated for 6 to 7 days by high content imaging assay; format: functional, cell-based
[20] = target: T1, Progesterone receptor (Homo sapiens); test: Inhibition of PGR transcription in human MCF7 harboring wild type ERalpha measured upto 96 hrs by qPCR analysis relative to control; format: cell-based
[21] = Antitumor activity in tamoxifen-resistant human MCF7 cells xenografted in 17beta-estradiol-treated NOD/SCID mouse model assessed as tumor growth inhibition at 60 mg/kg, po QD for 28 days relative to control; format: functional; conditions: tamoxifen-resistant MCF7 cell, 672 h, time 28 day, read-out: TGI
[22] = AUC (0-24hrs) in human MCF7 cells xenografted in 17beta-estradiol-treated NOD/SCID mouse model at 3 mg/kg, po and measured after 18 hrs post last dose; conditions: in vivo
[23] = Cmax in human MCF7 cells xenografted in 17beta-estradiol-treated NOD/SCID mouse model at 10 mg/kg, po and measured after 18 hrs post last dose; conditions: in vivo
[24] = AUC (0-24hrs) in human MCF7 cells xenografted in 17beta-estradiol-treated NOD/SCID mouse model at 10 mg/kg, po and measured after 18 hrs post last dose; conditions: in vivo
[25] = Cmax in human MCF7 cells xenografted in 17beta-estradiol-treated NOD/SCID mouse model at 30 mg/kg, po and measured after 18 hrs post last dose; conditions: in vivo
[26] = Antitumor activity in tamoxifen-resistant human MCF7 cells xenografted in 17beta-estradiol-treated NOD/SCID mouse model assessed as tumor growth inhibition at 30 mg/kg, po QD for 28 days relative to control; format: functional; conditions: tamoxifen-resistant MCF7 cell, 672 h, time 28 day, read-out: TGI
[27] = target: T2, Protein cereblon/Estrogen receptor (Homo sapiens) (UniProt P03372+Q96SW2); test: Protac activity at E3 ubiquitin-protein ligase/ERalpha in human MCF7 cells xenografted in 17beta-estradiol-treated NOD/SCID mouse model assessed as reduction in ERalpha degradation at 10 mg/kg, po and measured after 18 hrs post last dose relative to control; set-up: scale not given: the % may be the effect or the level left
MCF7 [28] = test: animal or person; conditions: Mus musculus, MCF7, po, 672 h, read-out: TGI
Description: Antitumor activity in human MCF7 cells xenografted in 17beta-estradiol-treated NOD/SCID mouse model assessed as tumor growth inhibition at 30 mg/kg, po QD for 28 days relative to control

MCF7 [29] = test: animal or person; conditions: Mus musculus, MCF7, 18 h, read-out: TGI
Description: Antitumor activity in human MCF7 cells xenografted in 17beta-estradiol-treated NOD/SCID mouse model assessed as tumor growth inhibition at 10 mg/kg, sc and measured after 18 hrs post last dose

[30] = target: T2, Protein cereblon/Estrogen receptor (Homo sapiens); test: Protac activity at E3 ubiquitin-protein ligase/ERalpha in human MCF7 cells xenografted in 17beta-estradiol-treated NOD/SCID mouse model assessed as reduction in ERalpha degradation at 3 mg/kg and measured after 18 hrs post last dose relative to control; format: organism-based; set-up: scale not given: the % may be the effect or the level left
MCF7 [31] = test: animal or person; conditions: Mus musculus, MCF7, 336 h, read-out: TGI
Description: Antitumor activity in human MCF7 cells xenografted in 17beta-estradiol-treated NOD/SCID mouse model assessed as tumor growth inhibition at 200 mg/kg, sc BIW for 2 weeks in the presence of palbociclib at 60 mg/kg relative to control

MCF7 [32] = test: animal or person; conditions: Mus musculus, MCF7, po, 672 h, read-out: TGI; remark: listed apart in the source
Description: Antitumor activity in human MCF7 cells xenografted in 17beta-estradiol-treated NOD/SCID mouse model assessed as tumor growth inhibition at 30 mg/kg, po QD for 28 days in the presence of palbociclib at 60 mg/kg relative to control

[33] = Cmax in human MCF7 cells xenografted in 17beta-estradiol-treated NOD/SCID mouse model at 3 mg/kg, po and measured after 18 hrs post last dose; conditions: in vivo
[34] = AUC (0-24hrs) in human MCF7 cells xenografted in 17beta-estradiol-treated NOD/SCID mouse model at 30 mg/kg, po and measured after 18 hrs post last dose; conditions: in vivo
MCF7 [35] = test: animal or person; conditions: Mus musculus, MCF7, 18 h, read-out: TGI; remark: listed apart in the source
Description: Antitumor activity in human MCF7 cells xenografted in 17beta-estradiol-treated NOD/SCID mouse model assessed as tumor growth inhibition at 30 mg/kg, sc and measured after 18 hrs post last dose

[36] = target: T2, Protein cereblon/Estrogen receptor (Homo sapiens); test: Protac activity at E3 ubiquitin-protein ligase/ERalpha in human MCF7 cells xenografted in 17beta-estradiol-treated NOD/SCID mouse model assessed as reduction in ERalpha degradation at 30 mg/kg, po and measured after 18 hrs post last dose relative to control; set-up: scale not given: the % may be the effect or the level left
[37] = Antitumor activity in tamoxifen-resistant human MCF7 cells xenografted in 17beta-estradiol-treated NOD/SCID mouse model assessed as tumor growth inhibition at 30 mg/kg, po QD for 28 days in the presence of palbociclib at 60 mg/kg relative to control; format: functional; conditions: tamoxifen-resistant MCF7 cell, 672 h, time 28 day, read-out: TGI

T2 sequence (P03372 whole entry, looked up): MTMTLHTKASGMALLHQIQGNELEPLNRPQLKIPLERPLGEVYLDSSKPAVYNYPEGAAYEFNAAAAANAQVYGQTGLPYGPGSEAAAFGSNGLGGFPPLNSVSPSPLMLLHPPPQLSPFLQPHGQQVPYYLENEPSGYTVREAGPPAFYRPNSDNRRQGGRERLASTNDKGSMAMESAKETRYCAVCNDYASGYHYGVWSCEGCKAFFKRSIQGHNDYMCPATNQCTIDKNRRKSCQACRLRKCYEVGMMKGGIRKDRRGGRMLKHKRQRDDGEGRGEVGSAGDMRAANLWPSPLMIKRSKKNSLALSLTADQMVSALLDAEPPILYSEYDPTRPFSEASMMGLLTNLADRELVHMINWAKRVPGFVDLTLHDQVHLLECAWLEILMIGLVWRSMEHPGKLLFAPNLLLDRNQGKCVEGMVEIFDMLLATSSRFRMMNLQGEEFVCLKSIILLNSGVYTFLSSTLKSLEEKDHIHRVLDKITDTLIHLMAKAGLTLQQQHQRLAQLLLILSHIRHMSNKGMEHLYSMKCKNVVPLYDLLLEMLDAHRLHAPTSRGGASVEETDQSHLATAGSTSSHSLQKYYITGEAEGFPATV
T2 sequence (Q96SW2 whole entry, looked up): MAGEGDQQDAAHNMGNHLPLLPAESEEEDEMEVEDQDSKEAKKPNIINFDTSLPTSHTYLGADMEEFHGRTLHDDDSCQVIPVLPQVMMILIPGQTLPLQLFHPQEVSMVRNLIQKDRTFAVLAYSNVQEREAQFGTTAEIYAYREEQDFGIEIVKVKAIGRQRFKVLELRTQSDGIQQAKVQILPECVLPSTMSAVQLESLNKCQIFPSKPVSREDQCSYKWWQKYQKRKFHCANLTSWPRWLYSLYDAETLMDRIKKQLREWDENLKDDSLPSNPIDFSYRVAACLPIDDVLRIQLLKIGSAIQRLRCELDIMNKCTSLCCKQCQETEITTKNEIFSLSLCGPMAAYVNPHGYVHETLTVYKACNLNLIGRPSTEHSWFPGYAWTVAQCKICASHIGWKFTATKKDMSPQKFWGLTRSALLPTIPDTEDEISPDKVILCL

CCNCCc1ccc(CN(CC)c2cc(OC)ccc2[C@@H]2CCc3cc(O)ccc3C2)cc1 [ELACESTRANT]
inhibition in vivo at 90 mg/kg (MCF7 [1]): 97% | inhibition in vivo at 60 mg/kg (MCF7 [2]): 88% | inhibition in vivo at 30 mg/kg (MCF7 [3]): 66% | inhibition in vivo at 120 mg/kg (MCF7 [4]): 96%

CN(C)C(=O)/C=C/CNCCOc1ccc(/C(=C(/CC(F)(F)F)c2ccccc2)c2ccc3[nH]nc(F)c3c2)cn1 [H3B-6545 FREE BASE]
Vd [5]: 1.2 L/kg | Vd [6]: 3 L/kg | clearance [7]: 18.2 mL/min/kg | half-life [8]: 2.3 h | AUC at 24 h [9]: 2500 ng·h/mL | Cmax [10]: 420 ng/mL | F [11]: 6.2% | Cmax [12]: 1200 ng/mL | GI50 (MCF7 [13]): 0.3 nM | half-life [14]: 4 h | AUC [15]: 14200 ng·h/mL | bioavailability [16]: 26%

Oc1ccc2c3c(cnc2c1)-c1ccc(C(F)(F)F)cc1O[C@@H]3c1ccc(OCCN2CC(CF)C2)cc1 [IMLUNESTRANT]
inhibition [17]: > 75% | pIC50 (MCF7 [18]): 8.52 | pIC50 (MCF7 [19]): 7.77 | inhibition [20]: > 75%

CC(=O)c1c(C)c2cnc(Nc3ccc(N4CCNCC4)cn3)nc2n(C2CCCC2)c1=O [PALBOCICLIB]
inhibition in vivo at 60 mg/kg [21]: 91%

O=C1CC[C@H](N2Cc3cc(N4CCN(CC5CCN(c6ccc([C@@H]7c8ccc(O)cc8CC[C@@H]7c7ccccc7)cc6)CC5)CC4)ccc3C2=O)C(=O)N1 [VEPDEGESTRANT]
AUC(0-t) at 18 h [22]: 658 ng·h/mL | Cmax [23]: 312 ng/mL | AUC(0-t) at 18 h [24]: 2540 ng·h/mL | Cmax [25]: 962 ng/mL | inhibition in vivo at 30 mg/kg [26]: 65% | Activity [27]: 97% | inhibition in vivo at 30 mg/kg (MCF7 [28]): 105% | inhibition in vivo at 10 mg/kg (MCF7 [29]): 98% | Activity [30]: 95% | inhibition in vivo at 200 mg/kg (MCF7 [31]): 108% | inhibition in vivo at 30 mg/kg (MCF7 [32]): 131% | Cmax [33]: 84 ng/mL | AUC(0-t) at 18 h [34]: 5720 ng·h/mL | inhibition in vivo at 30 mg/kg (MCF7 [35]): 124% | Activity [36]: 94% | inhibition in vivo at 30 mg/kg [37]: 113%
